Reference: US20250325569A1, “COMPOSITIONS AND METHODS OF MAKING AND USE THEREOF” (Ohio State Innovation Foundation, priority 2022, published 2025)
In brackets after ≈: the same amount, converted by molar mass.

Columns and labels:
Format in all cases: cell-based
[1] = tested on: Citrobacter freundii ATCC 8090; test: Microbroth dilution MIC
Protocol: (§1) Antimicrobial Assays. Susceptibility testing was performed using the microbroth dilution method in 96 round-well microtiter plates following the general guidelines described by the Clinical and Laboratory Standards Institute (CLSI). Compounds were prepared as 50λ of stocks (10 mM) by dissolving in dI H2O. All bacterial strains were grown and assayed in Mueller-Hinton and M9 glucose media (with amendments added as required), and yeast strains in YMM. Overnight cultures were inoculated into 3 mL of fresh growth media following a 1:100 dilution. Upon mid-exponential growth (OD600 0.4-0.6), cultures were diluted to 5×10^6 CFU mL-1 (based on previously determined calibration curves) and used as inoculum into assay plates. Wells contained 100 μL of media with 5×10^5 CFU mL-1 of test organism, and serial ½-dilutions of the test compound (starting with 200 μM). E. coli WM6242 was assayed with induction of the phosphonic acid uptake system including 1 mM IPTG in assay wells. Controls wells contained 200 µM kanamycin (for bacteria) or nystatin (for yeasts), no compound addition (vehicle only), and no cell addition (added media instead). Microtiter plates were incubated with shaking (220 rpm) at their respective growth temperatures. Culture densities (OD600) were recorded using a Bio-Rad xMark microplate spectrophotometer after 16 hours for all strains except Bacillus, which were after 24 hours. Assays were performed in triplicated on separate independent days. […] Minimum inhibitory concentrations are from triplicate assays performed on separate days.
(§2) Antimicrobial Assays. […] Susceptibility testing was performed using the microbroth dilution method in 96 round-well microtiter plates as previously described [A20]. Compounds were prepared as 50× of stocks (10 Mm) by dissolving in Di H2O. All bacterial strains were grown and assayed M9 glucose media (with amendments added as required), and yeast strains in YMM. Controls wells contained 200 µM kanamycin (for bacteria) or nystatin (for yeasts), no compound addition (vehicle only), and no cell addition (added media instead). Culture densities (OD600) were recorded using a Bio-Rad xMark microplate spectrophotometer after 16 hours for all strains except bacilli, which were recorded after 24 hours. […] MICs values are from triplicate assays performed on separate days. Disk diffusion assays were used to assess antimicrobial activity of the purified compounds against filamentous fungi and against Mycobacterium smegmatis [A20].

Salmonella enterica LT2 = test: Microbroth dilution MIC; conditions: for MIC: Salmonella enterica LT2
Protocol: as §1, §2

[2] = tested on: Bacillus megaterium ATCC 19213; test: Microbroth dilution MIC
Protocol: as §1, §2

[3] = tested on: Enterobacter aerogenes CDC 1998-68; test: Microbroth dilution MIC
Protocol: as §1, §2

[4] = tested on: Erwinia rhapontici KSJ3948; test: Microbroth dilution MIC
Protocol: as §1, §2

[5] = tested on: Serratia marcescens NRRL B-2544; test: Microbroth dilution MIC; conditions: for MIC: Serratia marcescens NRRL B-2544
Protocol: as §1, §2

[6] = tested on: Pseudomonas aeruginosa PA01; test: Microbroth dilution MIC
Protocol: as §1, §2

[7] = tested on: Staphylococcus aureus ATCC 23055; test: Microbroth dilution MIC
Protocol: as §1, §2

Pseudomonas aeruginosa K = test: Microbroth dilution MIC; conditions: for MIC: Pseudomonas aeruginosa K
Protocol: as §1, §2

[8] = tested on: Acinetobacter calcoaceticus ATCC 23055; test: Microbroth dilution MIC
Protocol: as §1, §2

[9] = tested on: Bacillus subtilis ATCC 6633; test: Microbroth dilution MIC
Protocol: as §1, §2

Rhodococcus jostii RHA1 = test: Microbroth dilution MIC
Protocol: as §1, §2

Escherichia coli K12 = test: Microbroth dilution MIC; conditions: for MIC: Escherichia coli K12
Protocol: as §1, §2

[10] = tested on: Pantoea ananatis LMG 20103; test: Microbroth dilution MIC
Protocol: as §1, §2

[11] = tested on: Acidovroax delafieldii ATCC 17505; test: Microbroth dilution MIC; conditions: Table 13, minimal media
Protocol: as §2

[12] = tested on: Salmonella enterica ser. Livingstone 1236H; test: Microbroth dilution MIC
Protocol: as §2

[13] = tested on: Salmonella enterica ser. Tennessee E2007000304; test: Microbroth dilution MIC; conditions: Table 13, minimal media
Protocol: as §2

[14] = tested on: Acidovorax avenae ATCC 19860; test: Microbroth dilution MIC; conditions: Paracidovorax avenae, ATCC19860, Table 13, minimal media
Protocol: as §2

[15] = tested on: Acidovorax citrulli ATCC 29625; test: Microbroth dilution MIC; conditions: Paracidovorax citrulli, ATCC29625, Table 13, minimal media
Protocol: as §2

[16] = tested on: Pseudomonas fluorescens Pf5; test: Microbroth dilution MIC; conditions: Table 13, minimal media
Protocol: as §2

[17] = tested on: Pseudomonas syringae pv. Tomato Max 14; test: Microbroth dilution MIC; conditions: Table 13, minimal media
Protocol: as §2

[18] = tested on: Acidovorax konjacii ATCC 33996; test: Microbroth dilution MIC; conditions: Table 13, minimal media
Protocol: as §2

[19] = tested on: Pseudomonas medocina Palleroni ATCC 25411; test: Microbroth dilution MIC; conditions: ATCC25411, Table 13, minimal media
Protocol: as §2

[20] = tested on: Acidovorax temperans ATCC 49665; test: Microbroth dilution MIC; conditions: ATCC49665, Table 13, minimal media
Protocol: as §2

[21] = tested on: yeast, and filamentous fungi; test: Antifungal activity: microbroth dilution (yeasts) and disk diffusion (filamentous fungi); conditions: panel of yeast and filamentous fungi (Table 12)
Protocol: Antimicrobial Assays. Susceptibility testing was performed using the microbroth dilution method in 96 round-well microtiter plates following the general guidelines described by the Clinical and Laboratory Standards Institute (CLSI). Compounds were prepared as 50λ of stocks (10 mM) by dissolving in dI H2O. All bacterial strains were grown and assayed in Mueller-Hinton and M9 glucose media (with amendments added as required), and yeast strains in YMM. Overnight cultures were inoculated into 3 mL of fresh growth media following a 1:100 dilution. Upon mid-exponential growth (OD600 0.4-0.6), cultures were diluted to 5×10^6 CFU mL-1 (based on previously determined calibration curves) and used as inoculum into assay plates. Wells contained 100 μL of media with 5×10^5 CFU mL-1 of test organism, and serial ½-dilutions of the test compound (starting with 200 μM). E. coli WM6242 was assayed with induction of the phosphonic acid uptake system including 1 mM IPTG in assay wells. […] Culture densities (OD600) were recorded using a Bio-Rad xMark microplate spectrophotometer after 16 hours for all strains except Bacillus, which were after 24 hours. […]
Antimicrobial Assays. […] Culture densities (OD600) were recorded using a Bio-Rad xMark microplate spectrophotometer after 16 hours for all strains except bacilli, which were recorded after 24 hours. […]

[22] = tested on: Curtobacterium sp. MMLR14_014; test: Antibacterial susceptibility testing; conditions: strains of Curtobacterium commonly present in soils and on plants
Protocol: as §2

[23] = tested on: Pseudomonas syringae B278a; test: microbe, parasite or virus in culture; conditions: Table 13, minimal media
Protocol: as §2

Escherichia coli WM6242 = test: Microbroth dilution MIC; conditions: Table 2 (MIC90), triplicate
Protocol: (§3) Antimicrobial Assays. […] Compounds were prepared as 50λ of stocks (10 mM) by dissolving in dI H2O. […] Overnight cultures were inoculated into 3 mL of fresh growth media following a 1:100 dilution. Upon mid-exponential growth (OD600 0.4-0.6), cultures were diluted to 5×10^6 CFU mL-1 (based on previously determined calibration curves) and used as inoculum into assay plates. Wells contained 100 μL of media with 5×10^5 CFU mL-1 of test organism, and serial ½-dilutions of the test compound (starting with 200 μM). E. coli WM6242 was assayed with induction of the phosphonic acid uptake system including 1 mM IPTG in assay wells. […] Microtiter plates were incubated with shaking (220 rpm) at their respective growth temperatures. […] Assays were performed in triplicated on separate independent days. […] Minimum inhibitory concentrations are from triplicate assays performed on separate days.

[24] = tested on: Escherichia coli WM6242 (Pn Uptake Induced); test: Microbroth dilution MIC, phosphonate uptake induced with 1 mM IPTG
Protocol: as §3

[25] = Table 13, minimal media, ≥90% growth inhibition
[26] = Table 2 (MIC90), microbroth dilution, triplicate
[27] = ATCC23055, Table 2 (MIC90), microbroth dilution, triplicate

`CC(N)C(=O)NC(CP(=O)(O)O)C(=O)O` (stereo not drawn) [Compound 2] gave an MIC ([1]; ATCC8090, Table 2 (MIC90), microbroth dilution, triplicate) greater than 200 µM, an MIC [1, 25] greater than 200 µM and an MIC (Salmonella enterica LT2; [26]) greater than 200 µM. The MIC (Salmonella enterica LT2; [25]) was greater than 200 µM, the MIC ([2]; Priestia megaterium, ATCC19213, Table 2 (MIC90), microbroth dilution, triplicate) was 12.5 µM (≈ 3 µg/mL) and the MIC ([2]; Table 13, minimal media) was 12.5 µM (≈ 3 µg/mL). It also gave an MIC ([3]; Klebsiella aerogenes, CDC199868, Table 2 (MIC90), microbroth dilution, triplicate) greater than 200 µM, an MIC [3, 25] greater than 200 µM and an MIC ([4]; KSJ3948, Table 2 (MIC90), Erwinia rhapontici KSJ, microbroth dilution, triplicate) greater than 200 µM. The MIC ([4]; Table 13, Erwinia rhapontici KSJ3948, minimal media, ≥90% growth inhibition) was greater than 200 µM, the MIC ([5]; NRRLB2544, Table 2 (MIC90), microbroth dilution, triplicate) was greater than 200 µM and the MIC ([5]; Table 13, minimal media) was greater than 200 µM. It also gave an MIC [6, 26] greater than 200 µM, an MIC ([6]; Table 13, minimal media) greater than 200 µM and an MIC [7, 27] greater than 200 µM. The MIC ([7]; Table 13, minimal media) was greater than 200 µM, the MIC (Pseudomonas aeruginosa K; [26]) was greater than 200 µM and the MIC (Pseudomonas aeruginosa K; Table 13, minimal media) was greater than 200 µM. It also gave an MIC [8, 27] greater than 200 µM, an MIC ([8]; Table 13, minimal media) greater than 200 µM and an MIC ([9]; ATCC6633, Table 2 (MIC90), microbroth dilution, triplicate) of 200 µM (≈ 48 µg/mL). For the same molecule, the MIC ([9]; Table 13, minimal media) was 200 µM (≈ 48 µg/mL), the MIC (Rhodococcus jostii RHA1; [26]) was greater than 200 µM and the MIC (Rhodococcus jostii RHA1; Table 13, minimal media) was greater than 200 µM. It also gave an MIC (Escherichia coli K12; [26]) greater than 200 µM, an MIC (Escherichia coli K12; [25]) greater than 200 µM and an MIC ([10]; LMG20103, Table 2 (MIC90), microbroth dilution, triplicate) of 100 µM (≈ 24 µg/mL). It also gave an MIC [10, 25] of 100 µM (≈ 24 µg/mL), an MIC [11] greater than 200 µM and an MIC [12] greater than 200 µM. The MIC [13] was greater than 200 µM, the MIC [14] was greater than 200 µM and the MIC [15] was greater than 200 µM. It also gave an MIC [16] greater than 200 µM, an MIC [17] greater than 200 µM and an MIC [18] greater than 200 µM. The MIC [19] was greater than 200 µM, the MIC [20] was greater than 200 µM and the “antifungal activity (in words)” value [21] was “neither compound exhibited antifungal activity”. The “inhibition (in words)” value [22] was “Neither compound inhibited”, the MIC [23] was greater than 200 µM and the MIC (Escherichia coli WM6242) was greater than 200 µM. The MIC [24] was greater than 200 µM.

With `CC(N)C(=O)NC(C)C(=O)NC(CP(=O)(O)O)C(=O)O` (stereo not drawn) [Compound 3] the “inhibitory activity compared with phosphonoalamide A (previously measured)” value (Salmonella enterica LT2; S. enterica LT2, i.e. lower MICs) was “greater inhibitory activity”, the “inhibitory activity compared with phosphonoalamide A (previously measured)” value ([5]; S. marcescens B-2544, i.e. lower MICs) was “greater inhibitory activity” and the “inhibitory activity compared with phosphonoalamide A (previously measured)” value (Pseudomonas aeruginosa K; P. aeuroginosa K, i.e. lower MICs) was “greater inhibitory activity”. The “inhibitory activity compared with phosphonoalamide A (previously measured)” value (Escherichia coli K12; E. coli K12, i.e. lower MICs) was “greater inhibitory activity” and the “inhibition (in words)” value [22] was “Neither compound inhibited”.
